Source: patent US7989005B2, “Corosolic acid formulation and its application for weight-loss management and blood sugar balance” (Soft Gel Technologies, Inc., priority 2000, dated 2011)

Key:
[1] = Acute toxicity studies in rats, single oral limit-dose; type: in vivo; conditions: single oral limit-dose of 5 g/Kg
Source text: The Journal of the Philippine Medical Association, 22, #7, 395402, 1940; Garcia, F. Distribution and Deterioration of Insulin-like Principle in Lagerstroemia Speciosa (Banaba). Acta Medica Philippina, 99-104; Garcia, F., and Melencio-Maglalang, P. Application of Banabins (A Plantisul Preparation) and S. B. Menus to Diabetics. The Journal of the Philippine Medical Association, 33, #1, 7-16, 1957; Garcia, F. Criticisms and Answers on Published Articles concerning Banabins or Plantisul Tablets. The Journal of the Philippine Medical Association, 35, #5, 313-319, 1959; Garcia, L., Pojas, F., Castro, I., Venzon, E., Sisson, F. and Capal, T. Pharmaceutico-chemical and Pharmacological Studies on a Crude Drug from Lagerstroemia Speciosa. The Philippine Journal of Science, 116, #4, 361-375, 1987; Scalori V et al., Int. J. Tiss. Reac., 1983, X 2, 95-97).

[2] = system: Ehrlich Ascites tumor cells; conditions: in-vitro; cited from earlier work

In the case of `C[C@H]1[C@H](C)CC[C@]2(C(=O)O)CC[C@]3(C)C(=CC[C@@H]4[C@@]5(C)C[C@@H](O)[C@H](O)C(C)(C)[C@@H]5CC[C@]43C)[C@H]12` [Corosolic acid, 2-a-hydroxyursolic acid], the acute toxicity [1] is given as “safe and non-toxic” and the “cellular uptake of glucose” value [2] is given as “improves the cellular uptake of glucose”.
